What was measured:
TGFβ = test: Cells containing TGFβ in the lung, bleomycin-induced lung fibrosis; type: in vivo, C57BL/6JOlaHsd mice; details: ladostigil + bleomycin; p<0.05
Procedure: The animal model of bleomycin-induced lung fibrosis is widely used to characterize the potential inhibitory effect of newly developed drugs (Distler et al. 2019). Experiments were performed in C57BL/6JOlaHsd male and female mice aged 12-13 weeks. Male mice weighed 23-27.3 g and female mice, 19.4-21.1 g. They were housed under pathogen-free conditions, up to 6 per cage, in IVC cages under a controlled temperature of 22-24° C., humidity and alternating 12-h light/dark cycles and provided with food and water ad libitum. […] TNFα and IL-6 in the bronchial fluid lavage was measured by ELISA as described in the preceding section.
Specimens taken from the left lung were embedded in paraffin and cut into 5 μm-thick slices. […] They were rehydrated and stained with a solution of Sirius red (100 mg/100 ml of [COMPOUND LEFT OUT], rinsed in distilled water until clear, dehydrated and mounted in a resinous medium. The red stain (also called “Sirius red” stain) is one of the best understood histochemical techniques. It relies on the birefringent properties of collagen and is much more specific than the other common collagen stains, Pulmonary fibrosis was evaluated on a score of 0-4 on 15-20 different fields taken from each lung section, according to the area and intensity of fibrotic staining in the field, excluding that in blood vessels. […]

TNFα = test: Secretion of TNFα from BzATP/LPS-activated microglia (ELISA); type: cell-based, Balb/C mice
Procedure: Experiments were performed on primary microglial cells isolated from brains of neonatal Balb/C mice as previously described (Reichert and Rotshenker, 2003). The brains were stripped of their meninges and enzymatically dissociated. Cells were plated on Poly-L-lysine coated flasks for one week, re-plated for 1- to 2-hr on bacteriological plates and non-adherent cells were washed away. Microglia were propagated by incubation in 20% of medium, conditioned by the L-cell line that produces mouse-CSF. They were identified by morphology and positive immune-reactivity to P2y12, F4/80, complement receptor-3 and Galectin-3/MAC-2 (Reichert and Rotshenker 2003; Gitik et al. 2011).
Cytokines were measured as previously described (Shamash et al. 2002) using ELISA Max deluxe set (Biolegend, CA, USA) for secreted TNFα and IL-6 proteins and ELISA DuoSet (R&D systems, UK) for secreted and cell associated IL-1β, according to manufacturer's instructions.
The effect of ladostigil at concentrations of 1×10^−13 M to 1×10^−9 M on the secretion of cytokine proteins was assessed by adding it to microglia for 2 hr before LPS (0.75 μg/ml) and BzATP (400 μM). Other microglia were treated similarly with the steroid, budesonide as a reference standard at concentrations of 1× 10^−13 to 1× 10^−11 M. Measurements of cytokine secretion were performed 8 hrs after addition of LPS and BzATP. Since the levels of secreted IL-1β were still low, samples were concentrated 2- to 4-fold by an Amicon ultra-centrifugal filter device (Merck-Millipore, Ireland). ELISA was used to quantify the levels of cytokine proteins. Protein content in the microglia lysate was measured by Bradford and levels of cytokines were calculated and presented as pg/μg of microglial protein.

[1] = system: cells (oxidative stress induced by Sin 1); details: cited from earlier work
[2] = Body weight in bleomycin-induced skin sclerosis; type: in vivo, C57BL/6 mice; details: 10 mg/kg/day in drinking fluid
Procedure: Male C57BL/6 mice aged 8 weeks were housed under pathogen-free conditions at a controlled temperature of 22-24° C., humidity and alternating 12-h light/dark cycles and provided with food and water ad libitum. Skin sclerosis was induced as described by Ravanetti et al, (2020). A small incision was made in the skin at the back caudal to the scapulae and subcutaneous pocket was created into which an Alzet micro-osmotic pump was implanted, and the incision closed with two stiches and a surgical clip. The pumps contained bleomycin, (delivered at the rate of 60 U/kg body weight) or saline (control) and were removed 10 days after implantation. The mice were monitored daily until they recovered completely and weighed twice weekly from the beginning of the experiment.
Ladostigil (10 mg/kg/day) was administered in the drinking fluid to 10 mice, housed 2/cage, from 3 days before bleomycin pump installation until the end of the experiment. The fluid intake of the mice was measured daily. The dose of ladostigil was adjusted accordingly. Bleomycin alone, (10 mice) and saline controls (6 mice) received regular drinking fluid.

[3] = system: bleomycin-induced lung fibrosis; test: Lung fibrosis score / collagen content in bleomycin-induced lung fibrosis; type: in vivo, C57BL/6JOlaHsd mice
Procedure: The animal model of bleomycin-induced lung fibrosis is widely used to characterize the potential inhibitory effect of newly developed drugs (Distler et al. 2019). Experiments were performed in C57BL/6JOlaHsd male and female mice aged 12-13 weeks. Male mice weighed 23-27.3 g and female mice, 19.4-21.1 g. They were housed under pathogen-free conditions, up to 6 per cage, in IVC cages under a controlled temperature of 22-24° C., humidity and alternating 12-h light/dark cycles and provided with food and water ad libitum. In order to minimize the stress of daily injection, ladostigil (5 mg/Kg/day) was administered by micro-osmotic pumps, implanted subcutaneously under ketamine/xylazine anesthesia, 5 days before administration of bleomycin, and delivered for 3 weeks to mice of each sex. Saline (2-3/sex) and bleomycin controls were anesthetized as described above. Bleomycin solution (0.25 mg/kg in 50 μl) was instilled into the lumen of the trachea as shown in a video by Ehrentraut et al. (2019). […] Mice were weighed daily and sacrificed on day 21. Bronchial fluid was collected as described in Ehrentraut et al. (2019). TNFα and IL-6 in the bronchial fluid lavage was measured by ELISA as described in the preceding section.
Specimens taken from the left lung were embedded in paraffin and cut into 5 μm-thick slices. They were put on slides and paraffin was removed. They were rehydrated and stained with a solution of Sirius red (100 mg/100 ml of [COMPOUND LEFT OUT], rinsed in distilled water until clear, dehydrated and mounted in a resinous medium. The red stain (also called “Sirius red” stain) is one of the best understood histochemical techniques. It relies on the birefringent properties of collagen and is much more specific than the other common collagen stains, Pulmonary fibrosis was evaluated on a score of 0-4 on 15-20 different fields taken from each lung section, according to the area and intensity of fibrotic staining in the field, excluding that in blood vessels. Two independent scientists blinded to the treatment performed the analysis. For TGFβ1 staining, slides were deparaffinized and rehydrated. Antigen retrieval was performed in Tris-based buffer, pH 9.0. Endogenous peroxidase activity was quenched by incubation in 3% H2O2. The tissue was permeabilized with Triton X-100 0.1% in PBS. After blocking, sections were incubated with primary antibody: diluted rabbit recombinant monoclonal TGFβ1 antibody (Abcam ab215715) over night, at 4° C. Slices were further incubated with the secondary antibody: ImmPRESS®-HRP Goat Anti-Rabbit IgG Polymer Detection Kit, Peroxidase (Vector labs VE-MP-7451-15) at room temperature. For color development, sections were incubated in peroxidase substrate solution DAB, at room temperature until desired stain intensity developed. They were then counterstained with filtered hematoxylin and cosin, cleared and mounted.
Experiments were performed in C57BL/6JOlaHsd male mice aged 12-13 weeks as described for ladostigil. AN1284 (2.5 mg/kg/day) was administered by micro-osmotic pumps, implanted subcutaneously under ketamine/xylazine anesthesia, 5 days before administration of bleomycin and delivered for 3 weeks. Mice were weighed daily, sacrificed on day 21 and bronchial fluid was collected. Fibrosis was measured by staining with Sirius red as described for ladostigil. TNFα and IL-6 in the bronchial fluid lavage was measured by ELISA as described for ladostigil.

C#CCN[C@@H]1CCc2ccc(OC(=O)N(C)CC)cc21 [Ladostigil, 6-(N-ethyl, N-methylcarbamyloxy)-N propargyl-1 (R)-aminoindan hemitartrate]
number of cells containing TGFβ in the lung (TGFβ): significantly reduced the number of cells containing TGFβ
minimal effective concentration (TNFα; Mus musculus, microglia, BzATP/LPS, medium containing BSA, 8 hrs, read-out: lowest concentration that significantly decreased TNFα secretion): 1e-07 µM
reduction of TNFα release (TNFα; all concentrations tested, added 2 hrs before BzATP and LPS, 0.1% BSA, p<0.01): reduced the 3 cytokines significantly
concentration preventing oxidative stress, fold lower than those inhibiting AChE or MAO [1]: 20 -fold
oxidative stress in cells / fall in mitochondrial potential ([1]; induced by Sin 1): prevented oxidative stress in cells
weight gain compared with bleomycin ([2]; days 18, 21, 24 and 27): greater than in those on bleomycin
increase in body weight ([2]; days 24-27, skin sclerosis): 15%
fibrosis (overall conclusion) ([3]; bleomycin-induced lung fibrosis murine model): shown to reduce fibrosis
collagen deposition (hydroxyproline) ([3]; both sexes, 5 mg/Kg/day): reduced collagen deposition
fibrosis (score) ([3]; females, 2.5 and 5 mg/Kg/day): significantly reduced fibrosis
fibrosis (score) ([3]; males, 5 and 10 mg/kg/day): significantly reduced fibrosis
anti-inflammatory effect in bleomycin-induced lung fibrosis model ([3]; mouse, in vivo): does not have an anti-inflammatory effect

From patent publication US20260294863A1, “METHOD OF TREATING FIBROTIC-RELATED CONDITION” (YISSUM RESEARCH DEVELOPMENT COMPANY OF THE HEBREW …, priority 2023, published 2026)
